From PMC10447463, “Data-mining unveils structure–property–activity correlation of viral infectivity enhancing self-assembling peptides” (Nature Communications, 2023) come the findings set out here.

The format of data set [1] is physicochemical. Particulars: for ThT Cat. / ThT-Fluorescence (categorical): ThT-active if fluorescence at least twice the control. The essentials: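 Preformed peptide fibrils (1 mg/mL) mixed with 50 µM ThT in PBS, 15 min at RT, fluorescence ex 440/em 488 nm versus PBS blank, triplicates. Zeta potential: peptides at 1 mg/mL in PBS pH 7.4, aged 1 d at RT, diluted in 1 mM KCl, Smoluchowski from electrophoretic mobility.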

Data set [2] is described as follows: Zeta-potential measurement. The following applies: for Zeta-pot. / mV: zeta potential of peptide, Fig S15 source data; for Zeta pot. / mV: 1 mg/mL in PBS pH 7.4 from 10 mg/mL DMSO stock, 1 d RT, 60 µL diluted in 600 µL 1 mM KCl, Zetasizer Nano ZS, Smoluchowski, mean of triplicate. The data set is classed as physicochemical. The procedure, abridged: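 Peptides from a 10 mg/mL DMSO stock were brought to 1 mg/mL in PBS (pH 7.4) and aged 1 d at RT. Just before reading, they were diluted into 1 mM aqueous KCl, and zeta potential was calculated from electrophoretic mobility with the Smoluchowski formula.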

Where [3] appears, read: ThT fluorescence relative to blank (42.1851851851852 a.u.).
The mark [4] stands for this setting: ThT fluorescence relative to blank, blank = 42.1851851851852.
[5] abbreviates: relative to blank 42.1851851851852 a.u.

Where two headings read alike, the source gives them in different places.

In the case of RGDKIKIQINM [MG8a / CN17], the “Tht rel to blank (42.1851851851852)” value in data set [1] (setting [3]), in data set [1] (setting [4]) and in data set [1] (setting [5]) was 9.126 throughout. Besides, the “Tht category (> 1.5 to blank = +)” value in data set [1] (category 1/0) is recorded as 1 (ThT. Cat is 1, if Rel. ThT >2). For the same substance, the “Zeta Pot. / mV” value in data set [2] stood at 16.43 mV; in data set [2] (mean, Std in separate column) it was 16.43 mV. Further, the “Zeta category ( +1 = if > 4 mV;-1 = if < -4 mV; 0 = -4mV to 4 mV)” value (from here on “Zeta category”) in data set [2] is recorded as 1 (+1 = if > 4 mV). The “Zeta-pot. / mV” value in data set [2] is 16.43 mV.

For RGDKIKIQINMC [psis29], the “Tht rel to blank (42.1851851851852)” value in data set [1] (setting [3]) and in data set [1] (setting [5]) was 1.396 each time. Also, the “Tht category (> 1.5 to blank = +)” value in data set [1] (category 1/0) is 0 (ThT-inactive (N-Fold <2)). For the same substance, the “Zeta category” value in data set [2] and in data set [2] (FigS26) was 1 (+1 = if > 4 mV) each time. Also, the “Zeta Pot. / mV” value in data set [2] (mean, Std in separate column) came to 12.2 mV. Further, the “Zeta-pot. / mV” value in data set [2] was 12.2 mV.

Take RGDKIKIQINMWQ [MG9a]: the “Tht category (> 1.5 to blank = +)” value in data set [1] (FigS26) is 0 (Tht category (> 1.5 to blank = +)); in data set [1] (category 1/0), 0 (ThT-inactive (N-Fold <2)). Moreover, the “Tht rel to blank (42.1851851851852)” value in data set [1] (setting [3]) and in data set [1] (setting [5]) was 1.781 throughout. In addition, the “Zeta category” value in data set [2] and in data set [2] (category from zeta potential) was 1 (+1 = if > 4 mV) throughout. In addition, the “Zeta Pot. / mV” value in data set [2] (mean, Std Zeta in next column) was 6.59 mV; in data set [2] (mean, Std in separate column), 6.59 mV. Moreover, the “Zeta-pot. / mV” value in data set [2] was determined as 6.59 mV.

Regarding RGECKFKFQF [CN16], the “Tht rel to blank (42.1851851851852)” value in data set [1] (setting [4]) was 2.392. Moreover, the “Tht category (> 1.5 to blank = +)” value in data set [1] (category 1/0) is 1 (ThT. Cat is 1, if Rel. ThT >2). In data set [2], the “Zeta Pot. / mV” value was 23.97 mV, the “Zeta category” value was 1 (+1 = if > 4 mV) and the “Zeta-pot. / mV” value is on record as 23.97 mV.

For RGEKIKIQINM [CN18], in data set [1] (setting [4]), the “Tht rel to blank (42.1851851851852)” value was 3.423. Further, the “Tht category (> 1.5 to blank = +)” value in data set [1] (category 1/0) was 1 (ThT. Cat is 1, if Rel. ThT >2). Also, in data set [2], the “Zeta Pot. / mV” value worked out at 15.3 mV, the “Zeta category” value is 1 (+1 = if > 4 mV) and the “Zeta-pot. / mV” value turned out to be 15.3 mV.

On to RINFWFW, for which the “ThT Cat. / ThT-Fluorescence (categorical)” value (shortened to “ThT Cat. / ThT-Fluorescence”) in data set [1] is recorded as 1 (ThT. Cat is 1, if Rel. ThT >2). For the same substance, in data set [2] (mean, Figure 6C), the “Zeta-Potential / mV” value is reported as 10.8 mV.

For the substance RIRFHIW, the “ThT Cat. / ThT-Fluorescence” value in data set [1] was 0 (ThT-inactive (N-Fold <2)). Besides, the “Zeta pot. / mV” value in data set [2] worked out at 0.107 mV. In addition, the “Zeta-Potential / mV” value in data set [2] (mean, Figure 6C) was found to be 0.107 mV.

RLRLTLC [CN13]: in data set [1] (setting [4]), the “Tht rel to blank (42.1851851851852)” value is 1.899. Further, the “Tht category (> 1.5 to blank = +)” value in data set [1] (category 1/0) was 0 (ThT-inactive (N-Fold <2)). Also, in data set [2], the “Zeta Pot. / mV” value turned out to be 19.67 mV, the “Zeta category” value is on record as 1 (+1 = if > 4 mV) and the “Zeta-pot. / mV” value is listed as 19.67 mV.

RQGNINIVA [reference compound]: in data set [1], the “ThT Cat. / ThT-Fluorescence” value is listed as 1 (ThT. Cat is 1, if Rel. ThT >2). The “Zeta pot. / mV” value in data set [2] was 10.2 mV. Moreover, in data set [2] (mean, Figure 7B), the “Zeta-Potential / mV” value worked out at 10.17 mV.

RVHLGLG: the “ThT Cat. / ThT-Fluorescence” value in data set [1] was 0 (ThT-inactive (N-Fold <2)). Further, in data set [2], the “Zeta pot. / mV” value is -6.01 mV. Moreover, in data set [2] (mean, Figure 6C), the “Zeta-Potential / mV” value was -6.01 mV.

Consider RVRVTVT, for which the “ThT Cat. / ThT-Fluorescence” value in data set [1] is 0 (ThT-inactive (N-Fold <2)). In data set [2], the “Zeta pot. / mV” value is -3.713 mV. For the same substance, the “Zeta-Potential / mV” value in data set [2] (mean, Figure 6C) was -3.713 mV.

As to VHDCVNITIK [reference compound], the “ThT Cat. / ThT-Fluorescence” value in data set [1] was 1 (ThT. Cat is 1, if Rel. ThT >2). For the same substance, in data set [2] (mean, Figure 7B), the “Zeta-Potential / mV” value was 9.27 mV.
